In one series the target is T1, D2 dopamine Receptors (Rattus norvegicus, UniProt P61169).
T1 construct: Corpus Striatum from male Wistar rats (150-200 g) is homogenized; from tissue; host or cells: rat corpus striatum
The series can be described thus: In vitro inhibition of 3H-spiperone binding to D2 dopamine receptors. The note with it: for IC50: IC50 for inhibition of specific 3H-spiperone (0.2 nM) binding, corpus striatum of male Wistar rats. As for the experimental part: I) In vitro Inhibition of ^3H-spiperone Binding to D2 dopamine Receptors
Tissue preparation: Preparations are performed at 0-4° C. unless otherwise indicated. Corpus Striatum from male Wistar rats (150-200 g) is homogenized for 5-10 sec in 10 ml KH2PO4 (50 mM, pH 7.4) using an Ultra-Turrax homogenizer. The suspension is centrifuged at 27,000×g for 15 min. The supematant is discarded and the pellet is resuspended in 50 mM KH2PO4, pH 7.4 (2000 ml per g of original tissue) and used for binding assays.
Assay: Aliquots of 0.5 ml tissue are added to 25 μl of test solution and 25 μl of ^3H-spiperone (0.2 nM, final concentration), mixed and incubated for 20 min at 37° C. Non-specific binding is determined using butadamol (1 μM, final concentration). After incubation the samples are placed on ice for 10 min. The assay is terminated by addition of 5 ml of ice-cold buffer and poured directly onto Whatman GF/C glass fibre filters (presoaked in 0.1% PEI for at least 20 min) under suction and immediately washed with 5 ml ice-cold buffer. The amount of radioactivity on the filters is determined by conventional liquid scintillation counting. Specific binding is total binding minus non-specific binding.

The target in series [1] is T2, D4.2 Dopamine Receptors (Human Recombinant) (Homo sapiens, UniProt P21917, DEL265-296).
T2 construct: purchased RBI D-195; host or cells: Chinese Hamster Ovary (CHO) cells, transfected; supplied as frozen membranes
T2 sequence (P21917 with tags, fused parts or gaps DEL265-296): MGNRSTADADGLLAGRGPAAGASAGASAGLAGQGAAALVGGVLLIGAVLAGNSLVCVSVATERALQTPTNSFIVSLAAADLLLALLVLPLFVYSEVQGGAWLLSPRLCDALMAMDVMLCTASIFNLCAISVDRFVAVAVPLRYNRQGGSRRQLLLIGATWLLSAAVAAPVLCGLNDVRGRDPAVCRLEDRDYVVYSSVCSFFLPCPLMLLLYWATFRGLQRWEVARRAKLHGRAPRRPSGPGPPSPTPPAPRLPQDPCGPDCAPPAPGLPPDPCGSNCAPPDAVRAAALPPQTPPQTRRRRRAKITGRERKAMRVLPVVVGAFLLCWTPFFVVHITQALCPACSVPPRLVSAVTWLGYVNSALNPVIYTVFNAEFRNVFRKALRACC
The series can be described thus: In vitro inhibition of 3H-spiperone binding to D4.2 dopamine receptors (human recombinant). To be noted: for IC50: IC50 for inhibition of specific 3H-spiperone (0.5 nM) binding, membranes of CHO cells transfected with human recombinant D4.2 receptor. On the procedure: II) In Vitro Inhibition of ^3H-spiperone Binding to D4.2 Dopamine Receptors (Human Recombinant)
Membranes are suspended in 10 mM Tris-HCl (pH 7.2) containing 2 mM EDTA, and stored tightly sealed at −80° C.
Asssay: The membranes are thawed and diluted in incubation buffer (50 mM Tns-HCl, pH 7.4, containing 120 mM NaCl, 5 mM KCl, 5 mM MgCl2 and 1 mM EDTA) —0.25 ml of membranes to 4.75 ml of incubation buffer. Aliquots of 100 μl of diluted membranes are added to 100 μl of test solution and 50 μl of ^3H-spiperone (0.5nM, final concentration). Finally, 750 μl incubation buffer is added and the assay mixture is incubated for 60 min at 25° C. Non-specific binding is determined using haloperidol (1 μM, final concentration). After incubation the assay is terminated by rapid filtration over GF/C glass fibre filters (presoaked in 0.1% PEI for at least 20 min), then washed twice with 5 ml ice cold 50 mM Tris-HCl in 0.9% NaCl at pH 7.4. The amount of radioactivity on the filters is determined by conventional liquid scintillation counting. Specific binding is total binding minus non-specific binding.

Structures are written as SMILES. Where a name gives a salt, the structure may show the parent alone.

T1 sequence (P61169 whole entry): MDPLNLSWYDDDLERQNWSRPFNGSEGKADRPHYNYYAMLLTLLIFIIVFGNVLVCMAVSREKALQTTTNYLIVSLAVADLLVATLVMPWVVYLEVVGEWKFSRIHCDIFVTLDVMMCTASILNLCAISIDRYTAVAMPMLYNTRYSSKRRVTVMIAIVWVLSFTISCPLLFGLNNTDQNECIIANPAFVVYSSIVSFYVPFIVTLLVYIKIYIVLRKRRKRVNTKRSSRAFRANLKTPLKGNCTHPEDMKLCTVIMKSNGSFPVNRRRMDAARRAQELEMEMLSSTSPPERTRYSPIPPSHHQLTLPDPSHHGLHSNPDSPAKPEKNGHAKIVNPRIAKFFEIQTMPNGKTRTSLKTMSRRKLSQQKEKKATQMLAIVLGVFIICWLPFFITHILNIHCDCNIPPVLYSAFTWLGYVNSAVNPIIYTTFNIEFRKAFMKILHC

Consider `CCOc1ccccc1OCC1CNCCO1` (stereo not shown) [Viloxazine, 2-[(2-ethoxy-phenoxy)methyl]morpholine, reference compound], for which the “affinity for dopamine D2 receptors (in words)” value on D2 dopamine Receptors (qualitative statement) is listed as “no or only low affinity”. In series [1] (qualitative statement), the “affinity for dopamine D4 receptors (in words)” value is reported as “no or only low affinity”.
In the case of `COc1cc(Cl)ccc1OCC1CN(Cc2ccc(Cl)cc2)CCO1` (racemic) [(±)-4-(4-Chlorobenzyl)-2-[(4-chloro-2-methoxyphenoxy)methyl]morpholine oxalic acid salt], the IC50 on D2 dopamine Receptors is > 10000 nM; in series [1] it was 4 nM.
Take `COc1ccc(N)cc1OCC1CN(Cc2ccc(Cl)cc2)CCO1.O=C(O)C(=O)O` (racemic): the melting point is 80 to 110 °C.
As to `COc1cc(Cl)ccc1OCC1CN(Cc2ccc(Cl)cc2)CCCO1` (racemic) [(±)-2-[(4-chloro-2-methoxyphenoxy)methyl]-4-(4-chlorobenzyl)perhydro oxazepine oxalic acid salt], the IC50 on D2 dopamine Receptors was > 10000 nM; in series [1] it was 2.5 nM.

As usually defined, the IC50 is the concentration that gives 50% inhibition. By melting point is commonly meant the temperature, or range, at which the solid turns liquid.
